Earlier results as cited in US9694080B2, “Polymer release system” (EGALET LTD., priority 2001, dated 2017).

SMILES | dose linearity range (literature) [mg] | absorption in the large intestine, share of the total absorption (timed-release capsules, Nolte et al) | beta effect relative to S(−) (β1 and β2) | α effect relative to S(−) (α-adrenoceptor)
COc1ccccc1OCCNCC(O)COc1cccc2[nH]c3ccccc3c12 (stereo not shown) [Carvedilol] | 6.25 to 50 | approximately 10% | – | –
COc1ccccc1OCCNC[C@@H](O)COc1cccc2[nH]c3ccccc3c12 [R(+)] | – | – | 1/100 | the same α effect
